From patent publication US20240033238A1, “COMBINATION OF COMPOUNDS FOR USE IN THERAPY” (B&A ONCOMEDICAL, priority 2022, published 2024)

How the values were obtained:
[1] = molecular target: T1, NKCC1 (Homo sapiens, UniProt P55011); test: dose response on NKCC1-mediated K+ influx (FIG. 1B); assay type: cell-based; conditions: HEK293 cells, dose response curves
T1 construct: endogenous in cells; host or cells: HEK293
T1 sequence (P55011 1-1212): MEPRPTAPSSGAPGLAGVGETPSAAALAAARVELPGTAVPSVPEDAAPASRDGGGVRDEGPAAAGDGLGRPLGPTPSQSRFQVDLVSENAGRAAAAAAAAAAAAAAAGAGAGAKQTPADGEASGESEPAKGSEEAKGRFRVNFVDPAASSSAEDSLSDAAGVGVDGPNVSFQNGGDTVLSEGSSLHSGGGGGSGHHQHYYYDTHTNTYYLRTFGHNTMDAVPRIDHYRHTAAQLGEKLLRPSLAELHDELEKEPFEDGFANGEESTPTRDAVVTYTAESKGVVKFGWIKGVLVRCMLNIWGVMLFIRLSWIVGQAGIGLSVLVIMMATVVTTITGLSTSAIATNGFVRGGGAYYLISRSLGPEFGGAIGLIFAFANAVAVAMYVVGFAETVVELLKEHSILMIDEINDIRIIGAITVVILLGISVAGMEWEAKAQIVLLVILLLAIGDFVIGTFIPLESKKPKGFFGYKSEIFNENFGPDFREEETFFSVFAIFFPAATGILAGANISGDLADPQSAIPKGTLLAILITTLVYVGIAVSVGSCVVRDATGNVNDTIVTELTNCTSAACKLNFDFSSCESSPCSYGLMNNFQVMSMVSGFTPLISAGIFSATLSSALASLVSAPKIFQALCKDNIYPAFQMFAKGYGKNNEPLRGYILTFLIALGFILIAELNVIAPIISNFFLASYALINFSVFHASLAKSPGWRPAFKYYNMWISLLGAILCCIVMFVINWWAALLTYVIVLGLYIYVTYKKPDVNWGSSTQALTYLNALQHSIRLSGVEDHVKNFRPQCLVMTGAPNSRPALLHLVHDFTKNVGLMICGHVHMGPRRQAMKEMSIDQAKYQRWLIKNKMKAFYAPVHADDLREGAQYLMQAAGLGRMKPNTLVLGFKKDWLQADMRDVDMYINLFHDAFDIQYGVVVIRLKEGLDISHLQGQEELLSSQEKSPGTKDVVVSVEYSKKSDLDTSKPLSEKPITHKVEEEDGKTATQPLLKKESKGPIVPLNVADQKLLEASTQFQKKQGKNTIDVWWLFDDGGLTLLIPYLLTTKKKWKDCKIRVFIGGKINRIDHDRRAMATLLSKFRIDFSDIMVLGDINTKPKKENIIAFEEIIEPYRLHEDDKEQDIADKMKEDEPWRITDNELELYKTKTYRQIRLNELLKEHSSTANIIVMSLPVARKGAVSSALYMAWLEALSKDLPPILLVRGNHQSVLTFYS

[2] = test system: U87 cells; test: scratch test (invasion of tumour cells); assay type: cell-based, human; conditions: U87, 0.1 μm; for reduction of invasion: day 5, compared to controls not treated; for anti-invasive action (persistence of a trench): day 8
Description: To further investigate invasion of tumour cells, we performed a scratch test. This test enables to visualize the propagation and metastasis of tumour cells determined by their capacity to cross the trench. Therefore, U87 cells are cultivated and a scratch is made with a blade in order to estimate the strength and rapidity of invasion.

[3] = test system: U87 cell lines; test: cytotoxicity in GFP transfected U87 cells (cell number); assay type: cell-based, human; conditions: for reduction of number of cells: U87, 0.1 μm; for reduction of cell number / cytotoxic effect (in words): U87, 10 μm; for cytotoxic effect (in words): bumetanide at day 3 and day 5
Procedure: The HEK cell line is a specific immortalised cell line widely used in cell biology and biotechnology research and the U87 cell line is a human glioblastoma cell line that is commonly used in brain cancer research.
The effects of bumetanide alone or in combination with mebendazole were investigated in U87 cell lines at 0.1, 1, and 10 μm. Each experiment was performed in triplicate (n=3). Cells were GFP transfected (green). Cytotoxicity is manifested by loss of GFP and presence of small round flat cells loosing GFP expression indicative of cell death (apoptosis).

[4] = test system: U87 cells; test: immunochemistry (Dapi, iodure propidium, Actin/GFP) viability of cells; assay type: cell-based, human; conditions: U87, 1 μm; control: 3%
Description: The labels used are Dapi (blue) iodure propidium (red) and Actin immunocytochemistry with GFP (green) in order to visualize the viability and non-viability of cells.
To better illustrate the effects of bumetanide and mebendazole, we used Dapi (blue) iodure propidium (red) and Actin immunocytochemistry with GFP (green) in order to visualize the viability and non-viability of cells.

[5] = test system: K^+ influx in HEK293 cells; test: K+ influx in HEK293 cells (FIG. 1A); assay type: cell-based, human; conditions: ouabain 100 uM
[6] = test system: glioblastoma; conditions: rodent glioblastoma models; shifted from 20 days; cited from earlier work

Row | Structure (SMILES) | EC50 [1] [nM] | reduction of invasion [2] [%] | anti-invasive action (persistence of a trench) [2] | reduction of number of cells ([3]; day 3) | reduction of number of cells ([3]; day 5) | reduction of cell number ([3]; day 8) [%] | cytotoxic effect (in words) [3] | dead cells / reduction of cell density [4] | inhibition of K+ influx [5] | inhibition at 100 µM ([5]; Homo sapiens) [%] | mean survival [6] [days] | EC50 on NKCC1-mediated K+ influx [1] | reduction of number of cells ([3]; day 8) [%] | reduction of cell number ([3]; day 1) [%] | reduction of cell number ([3]; day 5) [%]
1 | CCCCNc1cc(C(=O)O)cc(S(N)(=O)=O)c1Oc1ccccc1 [bumetanide] | 312 | 40 | neither applications of mebendazole or bumetanide separately produced an anti-invasive action | not | not | 18 | strong cytotoxic action | 3,2% | 49% |  |  |  |  |  | 
2 | C[C@@H]1O[C@@H](O[C@H]2C[C@@H](O)[C@]3(CO)[C@H]4[C@H](O)C[C@]5(C)[C@@H](C6=CC(=O)OC6)CC[C@]5(O)[C@@H]4CC[C@]3(O)C2)[C@H](O)[C@H](O)[C@H]1O [ouabain] |  |  |  |  |  |  |  |  |  | 44 |  |  |  |  | 
3 | CCCSc1ccc2nc(NC(=O)OC)[nH]c2c1 [ABZ, albendazole] |  |  |  |  |  |  |  |  |  |  | 36 |  |  |  | 
4 | COC(=O)Nc1nc2ccc(C(=O)c3ccccc3)cc2[nH]1 [mebendazole, methyl N-[6-(benzoyl)-1H-benzimidazol-2-yl] carbamate] |  | 15 | neither applications of mebendazole or bumetanide separately produced an anti-invasive action | 43% | 90% | 64 | very strong cytotoxic effect | 50% | ineffective |  | 49 | inefficacy | 70 | 55 | 89
